Measured values as given in patent publication US10100052B2, “Compounds for the treatment of hepatitis B virus infection” (Gilead Sciences, Inc., priority 2016, dated 2018).

Legend:
[1] = system: HBsAg; experiment: PHH assay for inhibition of HBsAg; assay type: cell-based, genotype D (AD38-derived) HBV in primary human hepatocytes; conditions: Hepatitis B virus, 288 h, read-out: HBsAg EC50
Protocol: Primary human hepatocytes (PHH) (Bioreclamation IVT) were plated on collagen-coated flasks using Plating Media (Life Technologies) containing William's Medium E supplemented with 1% penicillin/streptomycin, 4 μg/mL human recombinant insulin, 2 mM GlutaMAX, 15 mM HEPES, 1 μM dexamethasone, 5% fetal bovine serum, and 0.2% Torpedo Antibiotic Mix (Bioreclamation IVT). After a 4-hour incubation at 37° C., cells were switched to Maintenance Media (Life Technologies) containing William's Medium E supplemented with 0.5% penicillin/streptomycin, 6.25 µg/mL human recombinant insulin, 6.25 μg/mL human transferrin, 6.25 ng/mL selenous acid, 1.25 mg/mL bovine serum albumin, 5.35 μg/mL linoleic acid, 2 mM GlutaMAX, 15 mM HEPES, 0.1 μM dexamethasone, 2% fetal bovine serum, 2% DMSO, and 0.2% Torpedo Antibiotic Mix (Bioreclamation IVT). On the next day, PHH were infected with 500 genome equivalent per cell of genotype D (AD38-derived) HBV in Maintenance Media supplemented with 4% PEG 8000 (Promega). After 24 hour incubation, cells were washed three times with William's Medium E and fed with fresh Maintenance Media. At 3 days after infection, infected PHH cells were seeded on 96-well plates pre-coated with collagen at a density of 65000 cells per well containing serially diluted solutions of certain compounds disclosed herein or DMSO (1% final concentration) in a final volume of 125 μl of Maintenance Media (Life Technologies) containing William's Medium E supplemented with 0.5% penicillin/streptomycin, 6.25 μg/mL human recombinant insulin, 6.25 μg/mL human transferrin, 6.25 ng/mL selenous acid, 1.25 mg/mL bovine serum albumin, 5.35 μg/mL linoleic acid, 2 mM GlutaMAX, 15 mM HEPES, 0.1 μM dexamethasone, 5% fetal bovine serum, 1 mM 1-amininobenzotriaole, and 0.2% Torpedo Antibiotic Mix (Bioreclamation IVT). Media with compounds was replenished every 2-3 days. After an incubation time of 12 days, secreted HBsAg in the supernatant were measured using a multiplex chemiluminescent (Mesoscale discovery, MSD) assay using capture and detection antibody pairs specific for HBsAg. Comparative Example 1 and Comparative Example 2 have the following structures and were prepared according to International Publication No. WO 2015/113990.

[2] = Pharmacokinetic analysis following oral administration to rats; assay type: in vivo, male Sprague-Dawley rats; conditions: rat, 5 mg/kg; for Cmax / AUC(0-t): male, Sprague-Dawley, plasma; for AUC(0-t): 0 to 24 hr, read-out: AUC0-24; for F: oral bioavailability
Protocol: Pharmacokinetic analysis was performed on various test compounds following intravenous or oral administration to male Sprague-Dawley rats.
For pharmacokinetic analysis of intravenously administered compounds, the test compounds were formulated in 5% NMP, 30% PG, 45% PEG 300 and 20% water at 0.5 mg/mL for IV infusion. For pharmacokinetic analysis following oral administration, compounds were formulated in the same vehicle and concentration.
Each dosing group consisted of 3 male, naïve Sprague-Dawley rats. At dosing, animals weighed approximately 0.28 kg. The animals were fasted overnight prior to dose administration and up to 4 hr after dosing. For studies of intravenous administration, the test article was administered to the animals by intravenous infusion over 30 min. The rate of infusion was adjusted according to the body weight of each animal to deliver a dose of 1 mg/kg. For studies of oral administration, the test article was administered according to the body weight of each animal to deliver a dose of 5 mg/kg.
For pharmacokinetic analysis of orally administered compounds, serial venous blood samples (approximately 0.3 mL each) were taken from each animal at time points of 0, 0.25, 0.50, 1.0, 2.0, 4.0, 6.0, 8.0, 12.0 and 24.0 hours after dosing. Blood samples were collected, prepared and analyzed in a similar way to the intravenous studies described above. Non-compartmental pharmacokinetic analysis was performed on the plasma concentration-time data. The resulting data are shown in the last three columns of Table 4. In Table 4, F (%) refers to oral bioavailability. Cmax refers to the peak plasma concentration of the compound after administration. AUC0-24 refers to area under the curve for the 0 to 24 hr plasma collection interval and is a measure of total plasma exposure of the indicated compound.

[3] = In vitro metabolic stability, hepatic microsomes (rat); assay type: in vitro ADME; conditions: pooled hepatic microsomes, pH 7.4; rat hepatic microsomes 1.0 mg/mL, 1 μM compound, NADPH and UDPGA cofactors; read-out: Microsome Stability T1/2 Rat
Protocol: Pooled hepatic microsomes were diluted in […] potassium phosphate buffer to 1.0 mg/mL final protein concentration. Alamethicin was added to the microsomal fraction to permeabilize the membrane to allow access of the UDP-glucronic acid (UDPGA) co-substrate to the active site of the UDP glucuronosyl transferase (UGT) enzymes. The final concentration was 25 μg/mL (ratio 25 μg alamethicin/mg microsomal protein) and the microsomes were then placed on ice for 15 min prior to the start of the reaction. Test compound was added to a final concentration of 1 μM. Positive control compounds known to be metabolized by oxidative and UGT enzymes were used. The metabolic reaction was warmed to 37° C. and initiated by the addition of a cofactor mix that consisted of 1.55 mM NADP, 3.3 mM glucose-6-phosphate, 0.4 U/mL glucose-6-phosphate dehydrogenase, 5 mM UDP-glucuronic acid and 3.3 mM MgCl2 all dissolved in 0.1 M potassium phosphate buffer, pH 7.4. At 2, 12, 25, 45, and 65 min, 25 μL aliquots of the reaction mixture were transferred to plates containing 225 μl of quenching solution (acetonitrile containing 300 nM labetalol IS and 0.1% formic acid). After quenching, the plates are centrifuged at 3000×g for 30 minutes to precipitate proteins, and 10 μL aliquots of the supernatant are analyzed by HPLC coupled to a high-resolution mass spectrometer.
Quantification of test compounds and positive controls were performed using analyte/internal standard peak area ratios (PAR) measured on a Q-Exactive mass spectrometer (Thermo Scientific, San Jose, Calif.) coupled to an Aria Transcend LX-4 multiplex UHPLC system (Thermo Scientific, San Jose, Calif.). A Hypersil Gold C18 UHPLC column (1.9 […], 50×2.1 mm) was used with mobile phases A and B consisting of 0.1% formic acid in water and 0.1% formic acid in acetonitrile, respectively. […] Half-lives of compounds in the incubations were calculated from extracted data using GMSU/QuickCalc (Gubbs, Inc.) and data are summarized in the following Table 3.

COCCCOc1cc2c(cc1Cl)-c1cc(=O)c(C(=O)O)cn1[C@H](C1(C)CC1)C2 [Comparative Example 1]
EC50 [1]: 1.8 nM | Cmax [2]: 4.03 µM | AUC(0-t) [2]: 22.1 µM·h | F [2]: 53.8% | half-life at 1 μM [3]: 3.82 h

COCCCOc1cc2c(cc1Cl)-c1cc(=O)c(C(=O)O)cn1[C@H](C(C)(C)C)C2 [Comparative Example 2]
EC50 [1]: 0.5 nM | Cmax [2]: 2.43 µM | AUC(0-t) [2]: 15.2 µM·h | F [2]: 40.5% | half-life at 1 μM [3]: 3.83 h

COCCCOc1cc2c(cc1Cl)-c1cc(=O)c(C(=O)O)cn1N(C(C)(C)C)C2 [Example 2, 6-(tert-Butyl)-10-chloro-9-(3-methoxypropoxy)-2-oxo-6,7-dihydro-2H-pyrido[2,1-a]-phthalazine-3-carboxylic acid]
EC50 [1]: 3 nM | Cmax [2]: 6.76 µM | AUC(0-t) [2]: 68.6 µM·h | F [2]: 109% | half-life at 1 μM [3]: > 5.83 h
